Experimental data: ChEMBL document CHEMBL1201862, “PubChem BioAssay data set” (2004)
Calls of active or inactive are those of the source.

Assays:
[1] = biological target: T1, NAD-dependent protein deacylase sirtuin-5, mitochondrial (Homo sapiens, UniProt Q9NXA8); test: blockers of sirtuin-5 peptide desuccinylation – biochemical, fluorescence imaging, cherry-pick, set 6, dose response (AID 720597)
[2] = A Cell-Based Confirmatory Screen for Compounds that Inhibit VEEV, TC-83 (3).; type: functional
[3] = viability of Vero 76 cells – cell-based, set 3, cytotoxicity control, dose response (AID 602439); type: functional; conditions: Venezuelan equine encephalitis virus
[4] = biological target: T1, NAD-dependent protein deacylase sirtuin-5, mitochondrial; test: sirtuin-5 deacylation blockers, concentration series – biochemical, fluorescence imaging, cherry-pick, set 5, dose response (AID 720591);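 note: desuccinylation of succinyl peptide AMC substrate read as fluorescence after trypsin release; potency of inhibitors that lower fluorescence and may act on trypsin instead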
[5] = biological target: Mu-type opioid receptor (Homo sapiens, UniProt P35372); type: functional, cell-based;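 note: U2OS cells with beta-arrestin recruitment to OPRM1 by beta-gal complementation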
[6] = biological target: T2, DNA repair protein RAD52 homolog (Homo sapiens, UniProt P43351); type: functional, biochemical
T2 sequence (P43351 whole entry): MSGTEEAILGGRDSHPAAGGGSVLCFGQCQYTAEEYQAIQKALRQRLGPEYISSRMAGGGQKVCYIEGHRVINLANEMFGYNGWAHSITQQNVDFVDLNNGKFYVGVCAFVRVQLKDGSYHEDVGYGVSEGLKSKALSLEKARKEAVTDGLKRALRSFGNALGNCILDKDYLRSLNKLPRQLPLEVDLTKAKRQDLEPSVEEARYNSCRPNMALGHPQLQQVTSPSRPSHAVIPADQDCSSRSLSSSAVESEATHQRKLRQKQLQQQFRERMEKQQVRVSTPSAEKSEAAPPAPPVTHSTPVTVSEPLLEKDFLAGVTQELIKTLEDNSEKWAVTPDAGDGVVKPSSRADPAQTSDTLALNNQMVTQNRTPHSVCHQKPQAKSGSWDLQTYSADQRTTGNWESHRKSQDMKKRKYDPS

[7] = biological target: 5-hydroxytryptamine receptor 2A (Mus musculus, UniProt P35363); type: functional, cell-based;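 note: CHO-K1 cells with tagged receptor and beta-arrestin; agonist potency measured as compound-induced activation of the receptor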
[8] = biological target: T3, Lysine-specific demethylase 4C (Homo sapiens, UniProt Q9H3R0); test: inhibition of JMJD2C H3K9me3 demethylation – biochemical, DELFIA europium, cherry-picked samples, dose response (AID 488835); type: functional
T3 sequence (Q9H3R0 whole entry): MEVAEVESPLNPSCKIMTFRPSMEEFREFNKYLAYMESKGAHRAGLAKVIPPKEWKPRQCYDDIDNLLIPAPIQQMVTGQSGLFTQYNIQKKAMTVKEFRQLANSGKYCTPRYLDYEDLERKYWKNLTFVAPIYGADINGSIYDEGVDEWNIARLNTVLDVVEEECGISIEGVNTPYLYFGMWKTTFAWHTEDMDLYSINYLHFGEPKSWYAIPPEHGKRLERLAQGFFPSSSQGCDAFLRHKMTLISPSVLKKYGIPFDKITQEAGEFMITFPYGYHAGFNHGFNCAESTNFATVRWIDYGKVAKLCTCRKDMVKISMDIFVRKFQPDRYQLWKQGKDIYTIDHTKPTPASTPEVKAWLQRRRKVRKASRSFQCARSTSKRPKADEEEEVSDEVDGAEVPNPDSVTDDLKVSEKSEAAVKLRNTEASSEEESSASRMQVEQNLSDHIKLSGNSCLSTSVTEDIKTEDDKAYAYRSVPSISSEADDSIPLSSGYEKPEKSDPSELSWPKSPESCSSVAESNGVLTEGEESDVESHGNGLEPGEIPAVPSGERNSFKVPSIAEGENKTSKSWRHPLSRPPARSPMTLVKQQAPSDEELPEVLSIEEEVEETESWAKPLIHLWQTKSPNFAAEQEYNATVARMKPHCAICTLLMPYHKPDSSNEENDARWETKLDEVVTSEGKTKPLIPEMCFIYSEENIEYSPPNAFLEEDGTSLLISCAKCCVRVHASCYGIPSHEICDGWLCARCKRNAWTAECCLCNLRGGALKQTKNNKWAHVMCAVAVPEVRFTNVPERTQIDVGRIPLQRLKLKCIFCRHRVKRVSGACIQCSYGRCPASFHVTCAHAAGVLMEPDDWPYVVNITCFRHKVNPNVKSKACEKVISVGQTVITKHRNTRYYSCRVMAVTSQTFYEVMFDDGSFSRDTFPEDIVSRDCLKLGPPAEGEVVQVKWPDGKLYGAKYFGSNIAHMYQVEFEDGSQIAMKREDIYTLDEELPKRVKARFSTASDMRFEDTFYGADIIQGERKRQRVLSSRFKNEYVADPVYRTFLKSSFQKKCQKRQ

[9] = biological target: Major prion protein (Homo sapiens, UniProt P04156); type: functional, cell-based
[10] = cells
[11] = inhibitors of non-replicating M. tuberculosis, dose response, luciferase, dry powder (AID 651620); type: functional; conditions: Mycobacterium tuberculosis
[12] = inhibitors of non-replicating M. tuberculosis, dose response, luciferase, dry powder (AID 651619); type: functional; conditions: Mycobacterium tuberculosis
[13] = biological target: Disintegrin and metalloproteinase domain-containing protein 17 (Homo sapiens, UniProt P78536); test: exosite inhibitors of ADAM17, dose response, biochemical (AID 743260)
[14] = biological target: Protein Wnt-3a (Mus musculus, UniProt P27467); test: SAR analysis of small molecule antagonists of Gli-SUFU in a Wnt3a luminescent reporter assay.; type: functional
[15] = A549 cell cytotoxicity, dose response, cytotoxicity control, plate reader, cherry-pick, antagonist series (AID 743412); type: functional, cell-based
[16] = inhibition of bursicon-driven LGR2 cAMP signaling – cell-based, HEK293, CRE-luciferase reporter, cherry pick, dose response (AID 743342); type: functional
[17] = biological target: T4, Short transient receptor potential channel 4 (Mus musculus, UniProt Q9QUQ5); test: block of DAMGO-driven TRPC4 calcium entry – cell-based, HEK293 TRPC4/mu-opioid, Fluo-4 calcium, dose response (AID 434942); type: functional;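 note: potency of inhibitors blocking the TRPC4 calcium response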
T4 sequence (Q9QUQ5 whole entry): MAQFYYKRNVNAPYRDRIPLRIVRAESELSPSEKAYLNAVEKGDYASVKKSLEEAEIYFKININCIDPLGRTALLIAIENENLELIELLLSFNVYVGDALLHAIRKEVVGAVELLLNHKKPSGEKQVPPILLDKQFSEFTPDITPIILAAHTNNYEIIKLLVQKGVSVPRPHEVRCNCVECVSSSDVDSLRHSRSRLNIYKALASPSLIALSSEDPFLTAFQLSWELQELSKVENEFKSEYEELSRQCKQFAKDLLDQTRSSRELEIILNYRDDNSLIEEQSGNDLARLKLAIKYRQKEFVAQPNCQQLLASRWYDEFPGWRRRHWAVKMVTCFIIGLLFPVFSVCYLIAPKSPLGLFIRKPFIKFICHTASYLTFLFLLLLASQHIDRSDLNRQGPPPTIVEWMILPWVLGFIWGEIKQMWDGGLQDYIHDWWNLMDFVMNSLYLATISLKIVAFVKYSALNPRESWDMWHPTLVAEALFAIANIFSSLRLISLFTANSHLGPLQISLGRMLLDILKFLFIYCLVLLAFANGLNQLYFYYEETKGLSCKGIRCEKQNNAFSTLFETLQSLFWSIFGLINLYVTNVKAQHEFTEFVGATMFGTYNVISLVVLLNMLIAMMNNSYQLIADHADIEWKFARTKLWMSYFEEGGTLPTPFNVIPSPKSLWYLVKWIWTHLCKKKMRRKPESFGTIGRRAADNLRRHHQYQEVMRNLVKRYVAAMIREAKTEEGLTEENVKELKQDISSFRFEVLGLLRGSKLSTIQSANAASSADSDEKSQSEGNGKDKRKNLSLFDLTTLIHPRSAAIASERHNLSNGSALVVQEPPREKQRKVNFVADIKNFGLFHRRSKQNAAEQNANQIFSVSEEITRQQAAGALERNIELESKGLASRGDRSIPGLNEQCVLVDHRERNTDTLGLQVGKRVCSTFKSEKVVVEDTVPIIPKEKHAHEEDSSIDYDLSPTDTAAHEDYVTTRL

[18] = biological target: ADP-ribosylation factor GTPase-activating protein 1 (Rattus norvegicus, UniProt Q62848); test: Fluorescence polarization-based biochemical high throughput dose response screening assay to identify inhibitors of ADP-ribosylation factor GTPase activating protein 1 (ARFGAP1).; type: functional
[19] = biological target: Arf-GAP with SH3 domain, ANK repeat and PH domain-containing protein 1 (Homo sapiens, UniProt Q9ULH1); type: functional;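 note: biochemical fluorescence polarization dose–response screen measuring inhibition of ASAP1; ASAP1 GAP domain stimulating GTP hydrolysis by truncated human ARF1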
[20] = viability loss in HepG2 hepatoma cells – cell-based, ATP luminescence, cherry-pick, activator set 2, cytotoxicity control, dose response (AID 1053143); type: functional

CCC(=O)N1CC[C@@H]2[C@@H](CO)Nc3ccc(C#Cc4cccnc4)cc3[C@@H]21
AC50 [1]: > 30 µM (inactive)

Cc1cc(Cc2cc(C)cc(C(C)(C)C)c2O)c(O)c(Cc2cc(C)cc(C(C)(C)C)c2O)c1
IC50 [2]: > 25 µM (active) | CC50 [3]: 43.1 µM (active)

O=C(CCC(=O)OCc1ccc(Br)cc1)Nc1ccccc1
AC50 [4]: > 30 µM (inactive)

NCC(O)c1cc(O)c(O)cc1F (stereo unspecified)
EC50 [5]: 92.6 µM (inactive) | AC50 [6]: 6.44 µM (active) | EC50 [7]: 0.724 µM (active) | AC50 [8]: 11.2 µM (active)

O=C(C1=C(O)C(=O)N(CCN2CCOCC2)C1c1cccc(F)c1)c1cc2ccccc2o1 (stereo unspecified)
IC50 [9]: 6.77 µM (active) | IC50 [10]: > 138 µM (inactive)

CSc1nnc(-c2ccccc2)o1
IC90 [11]: 125 µM (active) | IC90 [12]: 125 µM (active)

COc1cccc(C2C(C#N)=C(N)Oc3c2oc(CO)cc3=O)c1 (stereo unspecified)
IC50 [13]: > 69.5 µM (inactive)

O=C(Nc1cc(N2CCCC2)ncn1)c1cccc(F)c1
IC50 [14]: > 21.8 µM (inactive)

C[C@H](CO)N1C[C@H](C)[C@H](CN(C)C(=O)Nc2ccccc2)OCCCC[C@H](C)Oc2ccc(NC(=O)CCC(F)(F)F)cc2C1=O
AC50 [15]: > 52 µM (inactive) | AC50 [16]: 13.9 µM (active)

COC(=O)CSc1nnc2n(-c3ccc(OC)cc3)c(=O)c3c4c(sc3n12)CCCCC4
EC50 [17]: 1.5 µM (active) | IC50 [18]: 38.1 µM (inactive) | IC50 [19]: 28.2 µM (inactive)

Cc1nc2ccccc2n1CC(O)COc1ccccc1Cl (stereo unspecified)
EC50 [17]: 3.35 µM (active) | AC50 [20]: > 52 µM (inactive)
